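A five-concentration, 48-hour dose response in 96-well plates underlies each endpoint, interpolated linearly between surrounding concentrations. Here, GI50 denotes the concentration required for 50% inhibition of growth. The concentration for full growth arrest is given as TGI.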

Holding throughout (experiment): inhibition of tumour cell growth, NCI panel, 48 h
Assay [1] relates to HCC-2998 colon.
The test system of assay [2] is HT29 colon.
The subject of assay [3] is NCI-H226 lung.
The test system of assay [4] is NCI-H460 lung.
In assay [5] the test system is OVCAR-5 ovarian.
Assay [6] relates to OVCAR-8 ovarian.
Assay [7] relates to SF-268 CNS.
Assay [8] has as its system SK-OV-3 ovarian.
Assay [9] relates to SNB-19 CNS.
The test system of assay [10] is K-562 leukemia.

`CN(C)c1ccc(O)c2c1C[C@H]1C[C@H]3[C@H](N(C)C)C(=O)C(C(N)=O)=C(O)[C@@]3(O)C(=O)C1=C2O`: the GI50 in [1] is 4.19 µM; in [2], 10.2 µM; in assay [3] it was 8.58 µM; in assay [4], 3.45 µM; in assay [5], 15.5 µM; in assay [6], 5.11 µM. Also, the GI50 in [7] was 5.46 µM; in assay [8], 3.92 µM; in [9] it was 5.93 µM. The TGI in [1] was 17.8 µM; in [2], over 100 µM; in [3], 84.5 µM; in assay [4] it was 20.7 µM; in [5] it was 88.8 µM; in assay [6] it was over 100 µM. Besides, the TGI in assay [7], in assay [8] and in assay [9] was over 100 µM throughout.
Regarding `Cc1ccc(C2=C(c3ccccc3)C(Br)(c3ccccc3)C(c3ccccc3)=C2c2ccc(C)cc2)cc1`, the TGI in assay [2], in [10], in assay [3], in assay [4], in assay [5] and in assay [6] was over 100 µM in each case. The TGI in assay [7], in assay [8] and in assay [9] was over 100 µM in each case.
For `O=C1CCCC1NC(=O)C(F)(F)F` (configuration not stated), the TGI in [2], in assay [10], in assay [3], in assay [4], in assay [5] and in assay [6] was over 100 µM throughout. Moreover, the TGI in assay [7], in assay [8] and in assay [9] was over 100 µM each time.
As for `O=C(/C=C/c1ccc(C(F)(F)F)cc1)c1ccc(Nc2nc(NCCO)nc(N3CCOCC3)n2)cc1`, the GI50 in assay [1] is 2.34 µM; in assay [2], 2 µM; in assay [10], 2.33 µM; in assay [3], 2.32 µM; in [4] it was 2.15 µM; in assay [5], 1.74 µM. The GI50 in assay [6] is 3.25 µM; in assay [7], 2.68 µM; in assay [8], 3.82 µM. Besides, the TGI in assay [1] is 5.7 µM; in assay [2], 4.51 µM; in [10], over 100 µM; in [3], 5.89 µM; in assay [4], 4.44 µM; in assay [5], 3.97 µM. Also, the TGI was 12.4 µM in assay [6], 11.1 µM in assay [7] and over 100 µM in assay [8].
Turning to `CC1/C(=N/Nc2ccc([N+](=O)[O-])cc2)CC2C3(C)CCC2(C(C)C(=O)O)C(=O)C13` (configuration not stated), the GI50 in assay [1] was 2.39 µM; in assay [2] it was 6.18 µM; in [4] it was 5.88 µM; in assay [5], over 100 µM; in assay [6], 8.17 µM; in assay [7], 33.5 µM. Also, the GI50 in assay [8] and in [9] was over 100 µM in each case. For the same molecule, the TGI was 51.7 µM in assay [1]; over 100 µM in assay [2]; over 100 µM in [4]; over 100 µM in assay [5]; over 100 µM in assay [6]; over 100 µM in assay [7]. Besides, the TGI in assay [8] and in [9] was over 100 µM in each case.
For the molecule `O=C(N/C(=C\c1ccc(Oc2ccc(Cl)c(Cl)c2)cc1)c1nc2ccccc2[nH]1)c1ccccc1`, the TGI stood at 31.7 µM in [1]; 32.6 µM in assay [2]; 59.6 µM in assay [10]; 67.9 µM in [5]; 28.6 µM in [6]; 37.1 µM in assay [7]. Besides, the TGI in assay [8] was 79.2 µM; in [9], 36.3 µM.
With `O=C1C(=O)c2ccccc2C(O)=C1CCCCCCCCC1CCCCC1`, the TGI in assay [1] was 24.4 µM; in assay [2] it was 31 µM; in assay [10], 12.1 µM; in assay [4], 15.9 µM; in assay [5] it was 32.2 µM; in assay [6], 29.5 µM. The TGI in assay [7] was found to be 22.6 µM; in [8], 54.4 µM; in assay [9], 25.1 µM.
As for `COC(=O)c1cc2oc(/C=C3\SC(=S)N(NC(C)=O)C3=O)cc2n1Cc1ccccc1`, the GI50 in [2] was 3.47 µM; in [10] it was 1.08 µM; in [3] it was 9.72 µM; in [4] it was 1.28 µM; in assay [5], 7.36 µM; in [6], 2.68 µM. Further, the GI50 in [7] was 4.16 µM; in assay [8], 6.33 µM; in assay [9] it was 6.8 µM. In addition, the TGI in assay [2] is 12.8 µM; in assay [10], over 50 µM; in assay [3] it was 22.4 µM; in assay [4], 37.1 µM; in [5], 19.1 µM; in [6], 19.4 µM. Besides, the TGI was found to be 27.6 µM in assay [7], 15.5 µM in [8] and 21.2 µM in [9].
As to `CC1(C)C2C/C(=C\c3ccccc3)C(=O)C1C2` (configuration not stated), the TGI in assay [1], in assay [2], in assay [10], in assay [4], in [5] and in [6] was over 100 µM in each case. Also, the TGI in assay [7], in assay [8] and in assay [9] was over 100 µM in each case.
For the molecule `CC1=C(C(=O)Nc2ccc(F)c(Cl)c2)C(c2cccc(Oc3ccccc3)c2)NC(=O)N1` (configuration not stated), the GI50 was 14.6 µM in assay [1]; 12 µM in [2]; 16.2 µM in assay [3]; 15.7 µM in [4]; 14.9 µM in [5]; 18 µM in assay [6]. For the same molecule, the GI50 was 15.6 µM in assay [7], 18 µM in assay [8] and 16 µM in assay [9]. The TGI in assay [1] was 27.8 µM; in assay [2] it was 24.5 µM; in [3] it was 37.4 µM; in assay [4] it was 38.4 µM; in assay [5], 28.2 µM; in assay [6], 43.7 µM. Further, the TGI in assay [7] was 40.3 µM; in assay [8] it was 32.7 µM; in assay [9] it was 31.3 µM.

(Values after PubChem BioAssay (NCI).)
